Results published in patent publication US9783556B2, “Kinase inhibitors” (RESPIVERT LIMITED, priority 2012, dated 2017).
Where two headings read alike, the source gives them in different places.

Columns and labels:
d-U937 cells = experiment: LPS-induced TNFα/IL-8 release in d-U937 cells; type: cell-based; conditions: Homo sapiens, dU937, LPS-stimulated d-U937 cells
Method: U937 cells, a human monocytic cell line, are differentiated to macrophage-type cells by incubation with phorbol myristate acetate (PMA; 100 ng/mL) for 48 to 72 hr. Cells are pre-incubated with final concentrations of test compound for 2 hr and are then stimulated with 0.1 μg/mL of LPS (from E. Coli: O111:B4, Sigma) for 4 hr. The supernatant is collected for determination of TNFα and IL-8 concentrations by sandwich ELISA (Duo-set, R&D systems). The inhibition of TNFα production is calculated as a percentage of that achieved by 10 μg/mL of BIRB796 at each concentration of test compound by comparison against vehicle control. The relative 50% effective concentration (REC50) is determined from the resultant concentration-response curve. The inhibition of IL-8 production is calculated at each concentration of test compound by comparison with vehicle control. The 50% inhibitory concentration (IC50) is determined from the resultant concentration-response curve.

Syk = Syk (Homo sapiens (Human), UniProt P43405); experiment: Syk enzyme inhibition (Z-LYTE FRET); type: biochemical
Method: (§1) The enzyme inhibitory activities of compounds disclosed herein are determined by FRET using synthetic peptides labelled with both donor and acceptor fluorophores (Z-LYTE, Invitrogen Ltd., Paisley, UK).
(§2) The inhibitory activities of compounds of the invention against c-Src and Syk enzymes (Invitrogen), are evaluated in a similar fashion to that described hereinabove. The relevant enzyme (3000 ng/mL or 2000 ng/mL respectively, 2.5 μL) is incubated with the test compound (either 4 μg/mL, 0.4 μg/mL, 0.04 μg/mL, or 0.004 μg/mL, 2.5 μL each) for 2 hr at RT. The FRET peptides (8 μM, 2.5 μL), and appropriate ATP solutions (2.5 μL, 800 μM for c-Src, and 60 μM ATP for Syk) are then added to the enzymes/compound mixtures and incubated for 1 hr. Development reagent (protease, 5 μL) is added for 1 hr prior to detection in a fluorescence microplate reader (Varioskan® Flash, ThermoFisher Scientific).
(§3) In all cases, the site-specific protease cleaves non-phosphorylated peptide only and eliminates the FRET signal. Phosphorylation levels of each reaction are calculated using the ratio of coumarin emission (donor) over fluorescein emission (acceptor), for which high ratios indicate high phosphorylation and low ratios indicate low phosphorylation levels. The percentage inhibition of each reaction is calculated relative to non-inhibited control and the 50% inhibitory concentration (IC50 value) is then calculated from the concentration-response curve.

PBMCs [1] = experiment: IL-2 and IFN gamma release in CD3/CD28 stimulated PBMC cells; type: cell-based; conditions: Homo sapiens, IL-2, read-out: IC50 Values for Inhibition of Cytokine Release PBMCs IL-2
Method: PBMCs from healthy subjects are separated from whole blood using a density gradient (Lymphoprep, Axis-Shield Healthcare). Cells are added to a 96 well plate pre-coated with a mixture of CD3/CD38 monoclonal antibodies (0.3 μg/mL eBioscience and 3 μg/mL BD Pharmingen respectively). Compound at the desired concentration is then added to the wells and the plate left for 3 days under normal tissue culture conditions. Supernatants are harvested and IL-2 and IFN gamma release determined by Sandwich ELISA (Duo-set, R&D System). The IC50 is determined from the dose response curve.

GSK 3α = GSK 3α (Homo sapiens (Human), UniProt P49840); experiment: GSK 3α enzyme inhibition (Z-LYTE FRET); type: biochemical; conditions: read-out: IC50 Values for Enzyme Inhibition GSK3α
GSK 3α, sequence (P49840 whole entry): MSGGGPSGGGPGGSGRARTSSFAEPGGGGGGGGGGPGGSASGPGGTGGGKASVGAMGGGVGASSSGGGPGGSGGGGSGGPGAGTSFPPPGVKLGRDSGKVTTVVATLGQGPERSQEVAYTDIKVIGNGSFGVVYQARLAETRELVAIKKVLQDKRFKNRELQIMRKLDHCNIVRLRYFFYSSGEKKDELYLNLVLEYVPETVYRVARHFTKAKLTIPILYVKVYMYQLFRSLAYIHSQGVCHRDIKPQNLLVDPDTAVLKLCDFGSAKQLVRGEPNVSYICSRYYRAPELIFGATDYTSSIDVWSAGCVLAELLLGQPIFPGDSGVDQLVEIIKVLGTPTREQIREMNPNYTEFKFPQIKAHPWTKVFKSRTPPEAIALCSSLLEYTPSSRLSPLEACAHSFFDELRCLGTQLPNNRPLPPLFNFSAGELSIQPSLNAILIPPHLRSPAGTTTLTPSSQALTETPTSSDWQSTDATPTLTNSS
Method: as §1
The following two assay variants can be used for determination of GSK 3α inhibition.
The inhibitory activities of compounds of the invention against the GSK 3α enzyme isoform (Invitrogen), are evaluated by determining the level of activation/phosphorylation of the target peptide. The GSK3-α protein (500 ng/mL, 2.5 μL) is mixed with the test compound (2.5 μL at either 4 μg/mL, 0.4 μg/mL, 0.04 μg/mL, or 0.004 μg/mL) for 2 hr at RT. The FRET peptide (8 μM, 2.5 μL), which is a phosphorylation target for GSK3α, and ATP (40 μM, 2.5 μL) are then added to the enzyme/compound mixture and the resulting mixture incubated for 1 hr. Development reagent (protease, 5 μL) is added for 1 hr prior to detection in a fluorescence microplate reader (Varioskan® Flash, ThermoFisher Scientific).
as §3
This method follows the same steps as Method 1 above, but utilises a shorter period of mixing of the test compound (105 minutes instead of 2 hours) with the GSK3-α protein.

c-Src = c-Src (Homo sapiens (Human), UniProt P12931); experiment: c-Src enzyme inhibition (Z-LYTE FRET); type: biochemical
c-Src, sequence (P12931 whole entry, looked up): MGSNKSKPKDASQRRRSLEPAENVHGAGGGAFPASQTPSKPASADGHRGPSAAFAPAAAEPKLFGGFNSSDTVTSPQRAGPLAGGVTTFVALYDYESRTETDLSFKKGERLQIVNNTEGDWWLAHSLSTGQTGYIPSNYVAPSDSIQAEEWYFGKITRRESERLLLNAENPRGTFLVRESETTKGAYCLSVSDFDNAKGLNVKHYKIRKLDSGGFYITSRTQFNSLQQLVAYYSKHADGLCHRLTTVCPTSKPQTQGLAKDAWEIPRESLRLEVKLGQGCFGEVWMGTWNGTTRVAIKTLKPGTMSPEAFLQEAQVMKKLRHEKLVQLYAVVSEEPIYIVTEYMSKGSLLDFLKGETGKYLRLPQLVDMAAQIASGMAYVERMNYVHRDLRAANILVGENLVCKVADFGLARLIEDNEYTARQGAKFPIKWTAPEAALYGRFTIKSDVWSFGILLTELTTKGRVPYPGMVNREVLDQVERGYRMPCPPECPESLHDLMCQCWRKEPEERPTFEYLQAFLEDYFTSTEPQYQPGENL
Method: as §1, §2, §3

PBMCs [2] = experiment: LPS-induced TNFα/IL-8 release in PBMC cells; type: cell-based; conditions: Homo sapiens, LPS-stimulated PBMCs
Method: Peripheral blood mononuclear cells (PBMCs) from healthy subjects are separated from whole blood using a density gradient (Lymphoprep, Axis-Shield Healthcare). The PBMCs are seeded in 96 well plates and treated with compounds at the desired concentration for 2 hours before addition of 1 ng/mL LPS (Escherichia Coli 0111:B4 from Sigma Aldrich) for 24 hours under normal tissue culture conditions (37° C., 5% CO2). The supernatant is harvested for determination of IL-8 and TNFα concentrations by sandwich ELISA (Duo-set, R&D systems) and read on the fluorescence microplate reader (Varioskan® Flash, ThermoFisher Scientific). The concentration at 50% inhibition (IC50) of IL-8 and TNFα production is calculated from the dose response curve.

[3] = target: p38 MAPKα isoform (MAPK14) (Homo sapiens (Human), UniProt Q16539); experiment: p38 MAPKα enzyme inhibition (Z-LYTE FRET); type: biochemical
p38 MAPKα isoform (MAPK14), sequence (Q16539 whole entry, canonical isoform): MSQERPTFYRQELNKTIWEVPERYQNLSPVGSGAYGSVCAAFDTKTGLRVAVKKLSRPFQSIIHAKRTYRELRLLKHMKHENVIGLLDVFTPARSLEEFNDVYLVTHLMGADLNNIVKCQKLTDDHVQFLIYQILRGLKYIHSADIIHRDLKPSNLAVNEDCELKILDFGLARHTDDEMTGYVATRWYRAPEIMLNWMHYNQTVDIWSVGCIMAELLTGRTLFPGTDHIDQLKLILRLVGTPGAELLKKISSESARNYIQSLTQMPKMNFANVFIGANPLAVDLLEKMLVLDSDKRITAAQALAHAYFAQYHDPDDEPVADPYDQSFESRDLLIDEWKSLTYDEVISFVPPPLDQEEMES
Method: as §1
The following two assay variants can be used for determination of p38 MAPKα inhibition.
The inhibitory activities of test compounds against the p38 MAPKα isoform (MAPK14: Invitrogen), are evaluated indirectly by determining the level of activation/phosphorylation of the down-stream molecule, MAPKAP-K2. The p38 MAPKα protein (80 ng/mL, 2.5 μL) is mixed with the test compound (2.5 μL of either 4 μg/mL, 0.4 μg/mL, 0.04 μg/mL or 0.004 μg/mL) for 2 hr at RT. […] The mixture is incubated for 1 hr at RT. Development reagent (protease, 5 μL) is added for 1 hr prior to detection in a fluorescence microplate reader (Varioskan® Flash, ThermoFisher Scientific).
This method follows the same steps as Method 1 above, but utilises a higher concentration of the p38 MAPKα protein (2.5 μL of 200 ng/mL protein instead of 2.5 μL of 80 ng/mL protein) for mixing with the test compound.
as §3

HT29 cells = experiment: IL-1β-induced IL-8 release in HT29 cells; type: cell-based; conditions: Homo sapiens, HT-29, IL-1β-stimulated HT29 cells, read-out: IC50 Values for Inhibition of Cytokine Release HT29 cells IL-8
Method: HT29 cells, a human colon adenocarcinoma cell line, are plated in a 96 well plate (24 hrs) and pre-treated with compounds at the desired concentration for 2 hours before addition of 5 ng/mL of IL-1β (Abcam) for 24 hours. Supernatants are harvested for IL-8 quantification by Sandwich ELISA (Duo-set, R&D System). The IC50 is determined from the dose response curve.

[4] = IL-8, read-out: IC50 Values for Inhibition of Cytokine Release dU937 cells IL-8
[5] = TNFα, method describes REC50 relative to BIRB796, read-out: IC50 Values for Inhibition of Cytokine Release dU937 cells TNFα
[6] = IL-8, read-out: IC50 Values for Inhibition of Cytokine Release PBMCs IL-8
[7] = TNFα, read-out: IC50 Values for Inhibition of Cytokine Release PBMCs TNFα

For `Cc1ccc(-n2nc([Si](C)(C)C)cc2NC(=O)Nc2ccc(Oc3ccnc(Nc4cc(C)c5[nH]ncc5c4)n3)c3ccccc23)cc1` [Example 9, 1-(4-((2-((7-Methyl-1H-indazol-5-yl)amino)pyrimidin-4-yl)oxy)naphthalen-1-yl)-3-(1-(p-tolyl)-3-(trimethylsilyl)-1H-pyrazol-5-yl)urea], the IC50 (d-U937 cells; [4]) was 2.6 nM, the IC50 (d-U937 cells; [5]) was 1.2 nM and the IC50 (Syk) was 520 nM. The IC50 (PBMCs [1]) was 41.2 nM, the IC50 (GSK 3α) was greater than 10000 nM and the IC50 (c-Src) was 135 nM. It also gave an IC50 (PBMCs [2]; [6]) of 3.4 nM, an IC50 [3] of 358 nM and an IC50 (HT29 cells) of 4.8 nM.
With `COc1cc(Nc2nccc(Oc3ccc(NC(=O)Nc4cc([Si](C)(C)C)nn4-c4ccc(C)cc4)c4ccccc34)n2)cc(OCCN2CCOCC2)c1` [Example 13, 1-(4-((2-((3-Methoxy-5-(2-morpholinoethoxy)phenyl)amino)pyrimidin-4-yl)oxy)naphthalen-1-yl)-3-(1-(p-tolyl)-3-(trimethylsilyl)-1H-pyrazol-5-yl)urea] the IC50 (d-U937 cells; [4]) was 1.4 nM, the IC50 (d-U937 cells; [5]) was 1.1 nM and the IC50 (Syk) was 106 nM. For the same compound, the IC50 (PBMCs [1]) was 3.9 nM, the IC50 (GSK 3α) was 5640 nM and the IC50 (c-Src) was 170 nM. For the same compound, the IC50 (PBMCs [2]; [6]) was 2.3 nM, the IC50 [3] was greater than 1000 nM and the IC50 (HT29 cells) was 4.3 nM.
Work on `COc1ccc(-n2nc([Si](C)(C)C)cc2NC(=O)Nc2ccc(Oc3ccnc(Nc4ccccc4)n3)c3ccccc23)cn1` [Example 2, 1-(1-(6-Methoxypyridin-3-yl)-3-(trimethylsilyl)-1H-pyrazol-5-yl)-3-(4-((2-(phenylamino)pyrimidin-4-yl)oxy)naphthalen-1-yl)urea] yielded an IC50 (d-U937 cells; [4]) of 2.6 nM, an IC50 (d-U937 cells; [5]) of 1.8 nM and an IC50 (Syk) greater than 1000 nM. For the same compound, the IC50 (PBMCs [1]) was 128 nM, the IC50 (GSK 3α) was 3240 nM and the IC50 (c-Src) was 93 nM. The IC50 (PBMCs [2]; [6]) was 8.4 nM, the IC50 (PBMCs [2]; [7]) was 2.7 nM and the IC50 [3] was 329 nM. For the same compound, the IC50 (HT29 cells) was 12.1 nM.
Work on `C[Si](C)(C)c1cc(NC(=O)Nc2ccc(Oc3ccnc(Nc4ccccc4)n3)c3ccccc23)n(-c2ccc(OCCN3CCOCC3)cc2)n1` [Example 3, 1-(1-(4-(2-Morpholinoethoxy)phenyl)-3-(trimethylsilyl)-1H-pyrazol-5-yl)-3-(4-((2-(phenylamino)pyrimidin-4-yl)oxy)naphthalen-1-yl)urea] yielded an IC50 (d-U937 cells; [4]) of 18 nM, an IC50 (d-U937 cells; [5]) of 2 nM and an IC50 (Syk) greater than 1000 nM. For the same compound, the IC50 (PBMCs [1]) was 76.8 nM, the IC50 (GSK 3α) was 4990 nM and the IC50 (c-Src) was 227 nM. The IC50 (PBMCs [2]; [6]) was 9.4 nM, the IC50 [3] was 347 nM and the IC50 (HT29 cells) was 13.4 nM.
`Cc1ccc(-n2nc([Si](C)(C)C)cc2NC(=O)Nc2ccc(Oc3ccnc(Nc4ccc5c(c4)NC(=O)C5)n3)c3ccccc23)cc1` [Example 10, 1-(4-((2-((2-Oxoindolin-6-yl)amino)pyrimidin-4-yl)oxy)naphthalen-1-yl)-3-(1-(p-tolyl)-3-(trimethylsilyl)-1H-pyrazol-5-yl)urea] was tested, and the IC50 (d-U937 cells; [4]) was 2 nM, the IC50 (d-U937 cells; [5]) was 1.6 nM and the IC50 (Syk) was 990 nM. It also gave an IC50 (PBMCs [1]) of 196 nM, an IC50 (GSK 3α) greater than 10000 nM and an IC50 (c-Src) of 19 nM. For the same compound, the IC50 (PBMCs [2]; [6]) was 3.5 nM, the IC50 [3] was 541 nM and the IC50 (HT29 cells) was 5 nM.
Work on `Cc1ccc(-n2nc([Si](C)(C)C)cc2NC(=O)Nc2ccc(Oc3ccnc(Nc4ccccc4)n3)c3ccccc23)cc1` [Example 1, 1-(4-((2-(Phenylamino)pyrimidin-4-yl)oxy)naphthalen-1-yl)-3-(1-(p-tolyl)-3-(trimethylsilyl)-1H-pyrazol-5-yl)urea] yielded an IC50 (d-U937 cells; [4]) of 4.6 nM, an IC50 (d-U937 cells; [5]) of 2.5 nM and an IC50 (Syk) greater than 1000 nM. The IC50 (PBMCs [1]) was 274 nM, the IC50 (GSK 3α) was greater than 10000 nM and the IC50 (c-Src) was 77 nM. It also gave an IC50 (PBMCs [2]; [6]) of 14.2 nM, an IC50 (PBMCs [2]; [7]) of 2.8 nM and an IC50 [3] of 152 nM. It also gave an IC50 (HT29 cells) of 15.6 nM.
Compound `Cc1ccc(-n2nc([Si](C)(C)C)cc2NC(=O)Nc2ccc(Oc3ccnc(Nc4cccc(OCCN5CCOCC5)c4)n3)c3ccccc23)cc1` [Example 6, 1-(4-((2-((3-(2-Morpholinoethoxy)phenyl)amino)pyrimidin-4-yl)oxy)naphthalen-1-yl)-3-(1-(p-tolyl)-3-(trimethylsilyl)-1H-pyrazol-5-yl)urea] has an IC50 (d-U937 cells; [4]) of 1.8 nM, an IC50 (d-U937 cells; [5]) of 1.5 nM and an IC50 (Syk) of 7 nM. For the same compound, the IC50 (PBMCs [1]) was 15.7 nM, the IC50 (GSK 3α) was greater than 2000 nM and the IC50 (c-Src) was 10 nM. It also gave an IC50 (PBMCs [2]; [6]) of 4.8 nM, an IC50 (PBMCs [2]; [7]) of 0.7 nM and an IC50 [3] of 314 nM. For the same compound, the IC50 (HT29 cells) was 8.7 nM.
In the case of `Cc1ccc(-n2nc([Si](C)(C)C)cc2NC(=O)Nc2ccc(Oc3ccnc(Nc4ccc5[nH]ncc5c4)n3)c3ccccc23)cc1` [Example 7, 1-[4-[2-(1H-Indazol-5-ylamino)pyrimidin-4-yl]oxy-1-naphthyl]-3-[2-(p-tolyl)-5-trimethylsilyl-pyrazol-3-yl]urea], the IC50 (d-U937 cells; [4]) is reported as 8.6 nM, the IC50 (d-U937 cells; [5]) is reported as 1.9 nM and the IC50 (Syk) is reported as 673 nM. For the same compound, the IC50 (PBMCs [1]) was 47.5 nM, the IC50 (GSK 3α) was greater than 10000 nM and the IC50 (c-Src) was 45 nM. It also gave an IC50 (PBMCs [2]; [6]) of 12 nM, an IC50 (PBMCs [2]; [7]) of 3.3 nM and an IC50 [3] of 380 nM. For the same compound, the IC50 (HT29 cells) was 16.6 nM.
